# Experimental data as given in US8334299B2, “β-carboline for the treatment of neurodegenerative diseases” (Ellneuroxx, Ltd., priority 2007, dated 2012).
# Experiments:
# [1] = system: brain-derived neurotrophic factor (BDNF); assay: PCR superarray of RNA from the striata of MPP+ rats: BDNF; format: in vivo, rat
# Excerpt: To investigate Parkinson's disease acute in vivo models are used for years although chronic models would be a better model for the disease. Another disadvantage of the acute models is that ca. 40% of the animals die from the application of the neurotoxin. Therefore, we have chosen a chronic model in which comparably very low doses of neurotoxin 1-methyl-4-phenylpyridinium (MPP^+) were infused for 28 days into the left lateral ventricle of the rat brain. The substance was continuously applied through osmotic minipumps. Thereby, casualties were completely avoided. After four weeks, either solvent or equimolar amounts of the sample substance, namely neuroprotective betacarboline, resp. 9-alkyl-betacarboline was infused for two weeks via the same catheter. In a preliminary study for dose-finding the MPP^+ dose which leads to a reduction by 40% of the dopamine concentration in the striatum was determined. The dopamine concentration in the striatum is a characteristic marker for Parkinson's disease in which a degeneration of dopaminergic neurons occurs.
# An explanation for the effect of the betacarboline was found in the tests of the RNA from the striata of these rats through the PCR superarray method. Accordingly, the betacarboline activates the generation of neurotrophins, thus proteins produced naturally in the body, which are responsible for the growth and differentiation of neurons. […]
# [2] = system: human neuroblastoma cell line (SH-SY5Y-cells); assay: Differentiation and proliferation (bromodeoxyuridine incorporation) of human neuroblastoma cells; format: cell-based
# Description: FIG. 5 Percentage of BrdU-positive cells of human neuroblastoma cells after incubation with 50 μM 9-methyl-β-carboline for 48 hours 10 DIV-12 DIV.
# FIG. 6 Evidence of the reduction of cell proliferation by incorporation of bromodeoxyuridine into the cell nucleus chromatin.
# The experiments were carried out with the human neuroblastoma cell line (SH-SY5Y-cells) and with a cell culture of primary nerve cells from the mice embryo midbrain. […] Moreover, the mentioned compounds induce in the primary culture from the mice embryo midbrain the generation of new, differentiated and functional dopaminergic neurons.
# The question whether 9-Alkyl-β-carboline derivatives lead to the differentiation of neurons is of outstanding importance.
# This cell line has many characteristics which dopaminergic neurons have as well. […] So this confirms the observations in the primary midbrain cultures that 9-methyl-β-carboline promotes the differentiation and thus the maturation of neuronal cells (FIG. 1a and FIG. 1b).
# Cell proliferation can be measured by the incorporation of bromodeoxyuridine. […] This hints at a reduction of cell proliferation. This finding also supports the other findings that 9-alkyl-β-carboline derivatives promote cell differentiation.
# [3] = system: neurons (total); assay: Total number of neurons in midbrain culture (different dyes); format: cell-based, mice; details: 50 μM, 48 hours; not as much as dopaminergic neurons
# Description: FIG. 3 Percentage of neurons (total) after incubation with 50 μM 9-methyl-β-carboline for 48 hours from 10 DIV-12 DIV.
# 9-methyl-β-carboline was used to show whether only dopaminergic neurons were influenced, or other neurons or glial cells as well. This question can be answered by the use of different dyes.
# [4] = system: undifferentiated multipotent neuronal precursor cells from the midbrain of mouse embryos; assay: Differentiation of multipotent neuronal precursor cells with compound in culture medium; format: cell-based; details: 50 μM final concentration once per week
# Description: To verify if 9-methyl-β-carboline increases the efficiency of culture media for the experiments with neurons and for tissue engineering, pilot experiments were carried out by way of example with undifferentiated multipotent neuronal precursor cells from the midbrain of mouse embryos (embryonic day 14). By suitable cultivation procedures a cell suspension was produced which was kept for four weeks in a medium that contained, inter alia, growth factors from fibroblasts and the skin (epidermal growth factor). After this time the neuronal precursor cells were differentiated in a medium to promote the maturation of neurons. After a week, about 40% of the cells could be stained by a neuronal marker (β-tubulin, type III). Most other cells were glial cells. A small percentage of the neurons could be colored additionally with the antibody for tyrosin hydroxylase (˜3%). This means that about three percent of the neurons were from the dopaminergic cell type. The enzyme tyrosin hydroxylase can only be found in the midbrain in dopaminergic neurons.
# Under corresponding conditions 9-methyl-β-carboline (50 μM final concentration) were added to the culture medium once per week, also once to the differentiation medium. […]
# [5] = system: genes involved in neuronal differentiation, inflammation, apoptosis; assay: Microarray analysis of gene transcription in midbrain cultures; format: cell-based, mice; details: vs control cultures
# Excerpt: These findings were further sustained by so-called microarray methods. The analyses confirm that the transcription of genes involved in neuronal differentiation is increased.
# [6] = system: dopaminergic neurons; assay: Dopamine concentration in midbrain culture; format: cell-based, mice; details: 50 μM, 48 hours, 10 DIV-12 DIV
# Description: FIG. 2a Dopamine concentration (dopamine content) after incubation with 50 μM 9-methyl-β-carboline for 48 hours from 10 DIV-12 DIV.
# To obtain further hints that the number of dopaminergic neurons really has increased, the dopamine concentration was measured. […] Another characteristic and specificity of dopaminergic neurons is the transport of dopamine into the neurons. Dopamine cannot permeate the outer membrane of neurons because of its hydrophilic character. It must be actively and energy-dependently transported through the DAT mechanism.
# [7] = system: midbrain cells in culture; assay: LDH release of midbrain cells in culture; format: cell-based, mice; details: 48 hours; dose-dependent up to 50 μM
# Description: FIG. 4a LDH release after 48 hours of incubation with 50 μM 9-methyl-β-carboline for 48 hours 10 DIV-12 DIV.
# Dying cells release the enzyme lactate dehydrogenase (LDH) into the medium. Since cells always die in culture always a small LDH concentration can be detected in the medium as an indirect measure for the vitality of the culture. Compared to control conditions the LDH concentration decreased after incubation with 9-methyl-β-carboline in a dose-dependent manner with a concentration up to 50 μM (FIG. 4a). The number of dead cells can be quantified by staining the cell nuclei with propidium iodide.
smiles,measurement,setting,value
Cn1c2ccccc2c2ccncc21 [9-methyl-β-carboline],increase of BDNF compared to rats infused solvent only for six weeks,[1]; left striatum,4.9 times
same,increase of BDNF compared to rats infused solvent only for six weeks,[1]; right striatum,8.5 times
same,installation of bromodeoxyuridine into the chromatin in the cell nucleus,"[2]; 50 μM, 48 hours, BrdU-positive cells",decreases
same,cellular extensions of neuroblastoma cells,[2]; human neuroblastoma cells,growth of cellular extensions
same,proliferation of neuroblastoma cells vs control cells,[2]; human neuroblastoma cells,proliferate less than control cells
same,total number of neurons,[3],increases
same,increase of percentage of dopaminergic cells,[4],25%
same,increase of amount of neurons compared to control conditions,[4]; 3 independent experiments,15%
same,transcription of genes involved in apoptosis,[5],transcribed less
same,transcription of genes involved in neuronal differentiation,[5],increased
same,transcription of genes which activate inflammation processes,[5],transcribed less
same,dopamine concentration (dopamine content),[6],slightly increased without reaching significance level
same,LDH concentration in the medium compared to control,[7],decreased
